In article PMC11963559, “Identification of novel thiazole derivatives as flaviviral protease inhibitors effective against Dengue (DENV2) and Japanese encephalitis viruses” (Antimicrobial Agents and Chemotherapy, 2025):

Legend:
DENV2 NS2B–NS3 protease = molecular target: T1, DENV2 NS2B–NS3 protease (Dengue virus type 2, UniProt P14340); assay: NS2B–NS3 protease steady-state kinetics and mode of inhibition; assay type: biochemical; conditions: for mode of inhibition: both Km and Vmax reduced, Lineweaver–Burk plot; for Vmax: increasing substrate concentrations
T1 construct: Activity of recombinant dengue 2 virus NS3 protease in the presence of a truncated NS2B co-factor; The N-terminal domain of NS3 contains a highly conserved protease-active core; made in house; host or cells: Escherichia coli BL21(DE3)
T1 sequence (P14340 1476-1653): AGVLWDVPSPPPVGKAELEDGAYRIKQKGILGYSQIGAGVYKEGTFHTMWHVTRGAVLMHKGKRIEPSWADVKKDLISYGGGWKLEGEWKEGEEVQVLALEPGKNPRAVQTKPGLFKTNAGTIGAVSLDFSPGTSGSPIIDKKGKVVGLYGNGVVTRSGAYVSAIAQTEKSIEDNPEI
T1 sequence (P14340 1398-1437): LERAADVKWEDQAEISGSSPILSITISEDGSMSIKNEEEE
Experimental: As 3au and 3aq compounds emerged as the two most promising candidates, we characterized their NS2B–NS3 inhibitory activity in greater detail using the previously mentioned DENV NS2B–NS3 protease assay (Fig. 3D) ([39], [41]). Experiments were performed to determine the kinetic parameters, inhibition constants, and inhibition mechanisms of these compounds. Enzymatic activity and corresponding reaction velocity were measured with various substrate concentrations either in presence of the vehicle control or two different concentrations of compounds. Several inhibitory mechanisms, including competitive, uncompetitive, and mixed/non-competitive mechanisms, were explored for each compound. […] The double reciprocal plot (Lineweaver–Burk plot) ( Fig. 5C and D) also validates the mode of enzymatic inhibition against DENV NS2B–NS3 protease.
The selected compounds were analyzed using in vitro protease assays performed in black 96-well plates. Standard reaction mixtures (60 µL) containing 50 mM Tris·HCl (pH 8.5), 1 mM CHAPS, 20% glycerol, 10 nM DENV2 NS2B–NS3 protease, 10 µM inhibitor (dissolved in DMSO) or DMSO, and 10.0 µM tetra-peptide substrate trifluoroacetate-Nle-Lys-Arg-Arg-AMC (ALFA Chemicals) were added to the reaction mixture and incubated for 1 h at room temperature. All assays were performed in triplicate. The release of free AMC was measured using a Varioskan LUX multimode microplate reader (Thermo Fisher Scientific) at excitation and emission wavelengths of 380 and 460 nm, respectively. Control fluorescence values obtained in the absence of inhibitors were considered 100%, and those obtained in the presence of inhibitors were calculated as the percentage of inhibition of the control using Microsoft Excel and plotted using Origin Pro 2023b. The background AMC in the absence of protease was subtracted before data analysis. Further, protease assay was done using different concentration of the compounds (1, 10, and 100 µM) to evaluate the IC50 for the in vitro assay. IC50 curves were fitted and determined by fitting the nonlinear equation in Origin2023b software. A similar approach was used to analyze the enzymatic kinetics of protease inhibition. The reaction progress was monitored by the release of free aminomethylcoumarin (AMC), as previously described. The substrate was incubated with or without the inhibitor in the aforementioned reaction buffer in the presence of varying concentrations of the substrate. The reactions were initiated by the addition of the NS2B–NS3 protease. Protease activity was monitored for 1 h based on the initial rate of increase in fluorescence intensity at 460 nm, with an excitation wavelength of 380 nm. The results were analyzed using Origin Pro 2023b and the Michaelis–Menten equation to obtain the apparent Michaelis–Menten constants and maximal velocities. All assays were performed in triplicate. For each tested compound, […] different concentrations of the inhibitor (0, 10, and 25 µM) were used at various concentrations (0–250 μM) of the substrate. The mechanism of inhibition was determined by observing the deviations in the apparent Km and Vmax values.

JEV = JEV replication in BHK-21 cells, viral RNA by qRT-PCR; assay type: cell-based; conditions: for IC50: BHK-21, 24 h, read-out: IC50, reduction of JEV viral RNA
Experimental: Therefore, we sought to evaluate the efficacy of these compounds against JEV to assess their broad-spectrum anti-viral action against flaviviruses.
BHK-21 cells were seeded in a 24-well cell culture plate at a density of (0.25 × 10^6 cells/well) with regular growth medium containing DMEM + 10% FBS 1 day prior to infection in triplicate. Once the cells reached 85%–90% confluence, they were infected with DENV2 and JEV virus inoculum comprising DMEM + 2% FBS and 10 µM of the compound at an MOI of 0.1. Cells were incubated for 1.5 h at 37 °C with the virus-compound inoculum, with gentle rocking every 10 min to ensure even coverage and prevent the cellular monolayer from drying. […] The cell culture supernatant was aspirated and washed with PBS, and the cellular monolayer was used for viral RNA isolation.
Total cellular RNA was extracted from BHK-21 cells using TRIzol reagent, according to the manufacturer’s instructions (Ambion Life Technologies, USA). RNA quantity and integrity were determined prior to use on a NanoDrop spectrophotometer (Thermo Fisher Scientific). Then, 1 µg of total RNA from each experimental sample was used to synthesize cDNA by reverse transcriptase (RT) by incubating the RNAs with Moloney murine leukemia virus (M-MuLV) RT, with specific RT primer, 5′-[…]-3′ (Tm = 63 °C), and deoxynucleoside triphosphates (dNTPs) (New England Biolabs) at 42 °C for 50 min, followed by inactivation at 70 °C for 15 min.
To quantify the viral RNA copy number, quantitative RT-PCR (qRT-PCR) was performed in duplicate using iTaq Universal SYBR Green Supermix (Bio-Rad). The cDNAs used for qPCR analysis were prepared using Power SYBR Green PCR Master Mix (Bio-Rad, #172–5125) in a QuantStudio5 Applied Biosystems real-time PCR system. […] Delta Ct for both control and compound-treated samples was determined and subsequently analyzed by determining the delta Ct to determine the mRNA expression of target genes in control vs treated samples.

SMILES | mode of inhibition (DENV2 NS2B–NS3 protease) | Vmax (DENV2 NS2B–NS3 protease; inhibitor 10 μM) | Vmax (DENV2 NS2B–NS3 protease; inhibitor 25 μM) | IC50 (JEV) | SI, selectivity index (CC50/IC50) (JEV; JEV, BHK-21 cells, qRT-PCR IC50)
COc1ccc(-c2csc(N/N=C(\C)c3ccc(O)cc3)n2)cc1 [3aq] | uncompetitive | 52.1 ± 3.3 | 18.4 ± 0.9 | 1.03 ± 0.21 µM | 
COc1ccc(-c2csc(N/N=C(\C)c3cc(O)cc(O)c3)n2)cc1 [3au] | uncompetitive | 38.9 ± 1.9 | 21.4 ± 0.7 | 1.16 ± 0.16 µM | 67.8
